Assay results taken from patent US20230085307A1, “PYRIDAZINONE COMPOUND AND HERBICIDE” (NISSAN CHEMICAL CORPORATION, priority 2019, published 2023).

What was measured:
green foxtail [1] = assay: Test Example 5: herbicidal effect by foliage application, plastic box (Table 20, symbol G); assay type: in vivo, green foxtail (Setaria viridis); details: foliage application, evaluated three weeks after application
How it was run: (§1)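 Post-emergence foliar test in sterilized diluvial soil. Compound applied as water-diluted emulsion at a predetermined rate to 14-day-old plants; evaluation at three weeks.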

Italian ryegrass [2] = assay: Test Example 4: herbicidal effect by soil treatment (Table 19, symbol K); assay type: in vivo, Italian ryegrass (Lolium multiflorum)
How it was run: (§2)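 Emulsion of test compound, water-diluted to predetermined amount, sprayed on soil after sowing (seed depth ~1.5 cm, sterilized diluvial soil). Greenhouse, 25–30° C. Effect graded at three weeks post-spray.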

blackgrass [3] = assay: Test Example 5: herbicidal effect by foliage application, plastic box (Table 20, symbol J); assay type: in vivo, blackgrass (Alopecurus myosuroides); details: foliage application, evaluated three weeks after application
How it was run: as §1

barnyard grass [4] = assay: Test Example 5: herbicidal effect by foliage application, plastic box (Table 20, symbol H); assay type: in vivo, barnyard grass (Echinochloa crus-galli); details: foliage application, evaluated three weeks after application
How it was run: as §1

rice flat sedge = assay: Test Example 3: herbicidal effect by foliage application, Wagner pot (Table 18, symbol E); assay type: in vivo, rice flat sedge (Cyperus iria)
How it was run: (§3)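 Plants were sown in alluvial soil held under 0.1–0.5 cm standing water and grown 14 days in a greenhouse at 25–30 °C. An emulsifiable formulation, water-diluted to the set dose, was then sprayed onto the foliage, and effects were scored three weeks later using previously defined criteria.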

persian speedwell = assay: Test Example 5: herbicidal effect by foliage application, plastic box (Table 20, symbol R); assay type: in vivo, Persian speedwell (Veronica persica); details: foliage application, evaluated three weeks after application
How it was run: as §1

windgrass [5] = assay: Test Example 4: herbicidal effect by soil treatment (Table 19, symbol L); assay type: in vivo, windgrass (Apera spica-venti)
How it was run: as §2

blackgrass [6] = assay: Test Example 4: herbicidal effect by soil treatment (Table 19, symbol J); assay type: in vivo, blackgrass (Alopecurus myosuroides)
How it was run: as §2

redroot pigweed [7] = assay: Test Example 5: herbicidal effect by foliage application, plastic box (Table 20, symbol N); assay type: in vivo, redroot pigweed (Amaranthus retroflexus); details: foliage application, evaluated three weeks after application
How it was run: as §1

windgrass [8] = assay: Test Example 5: herbicidal effect by foliage application, plastic box (Table 20, symbol L); assay type: in vivo, windgrass (Apera spica-venti); details: foliage application, evaluated three weeks after application
How it was run: as §1

velvetleaf [9] = assay: Test Example 4: herbicidal effect by soil treatment (Table 19, symbol M); assay type: in vivo, velvetleaf (Abutilon theophrasti)
How it was run: as §2

southern crabgrass [10] = assay: Test Example 4: herbicidal effect by soil treatment (Table 19, symbol F); assay type: in vivo, southern crabgrass (Digitaria ciliaris)
How it was run: as §2

wild oat [11] = assay: Test Example 5: herbicidal effect by foliage application, plastic box (Table 20, symbol I); assay type: in vivo, wild oat (Avena fatua); details: foliage application, evaluated three weeks after application
How it was run: as §1

southern crabgrass [12] = assay: Test Example 5: herbicidal effect by foliage application, plastic box (Table 20, symbol F); assay type: in vivo, southern crabgrass (Digitaria ciliaris); details: foliage application, evaluated three weeks after application
How it was run: as §1

wild oat [13] = assay: Test Example 4: herbicidal effect by soil treatment (Table 19, symbol I); assay type: in vivo, wild oat (Avena fatua)
How it was run: as §2

velvetleaf [14] = assay: Test Example 5: herbicidal effect by foliage application, plastic box (Table 20, symbol M); assay type: in vivo, velvetleaf (Abutilon theophrasti); details: foliage application, evaluated three weeks after application
How it was run: as §1

redroot pigweed [15] = assay: Test Example 4: herbicidal effect by soil treatment (Table 19, symbol N); assay type: in vivo, redroot pigweed (Amaranthus retroflexus)
How it was run: as §2

false cleavers = assay: Test Example 4: herbicidal effect by soil treatment (Table 19, symbol Q); assay type: in vivo, false cleavers (Galium spurium)
How it was run: as §2

chickweed = assay: Test Example 5: herbicidal effect by foliage application, plastic box (Table 20, symbol P); assay type: in vivo, common chickweed (Stellaria media); details: foliage application, evaluated three weeks after application
How it was run: as §1

green foxtail [16] = assay: Test Example 4: herbicidal effect by soil treatment (Table 19, symbol G); assay type: in vivo, green foxtail (Setaria viridis)
How it was run: as §2

barnyard grass [17] = assay: Test Example 3: herbicidal effect by foliage application, Wagner pot (Table 18, symbol H); assay type: in vivo, barnyard grass (Echinochloa crus-galli)
How it was run: as §3

Italian ryegrass [18] = assay: Test Example 5: herbicidal effect by foliage application, plastic box (Table 20, symbol K); assay type: in vivo, Italian ryegrass (Lolium multiflorum); details: foliage application, evaluated three weeks after application
How it was run: as §1

lambsquarters [19] = assay: Test Example 5: herbicidal effect by foliage application, plastic box (Table 20, symbol O); assay type: in vivo, lambsquarters (Chenopodium album); details: foliage application, evaluated three weeks after application
How it was run: as §1

Chinese sprangletop = assay: Test Example 3: herbicidal effect by foliage application, Wagner pot (Table 18, symbol D); assay type: in vivo, chinese sprangletop (Leptochloa chinensis)
How it was run: as §3

lambsquarters [20] = assay: Test Example 4: herbicidal effect by soil treatment (Table 19, symbol O); assay type: in vivo, lambsquarters (Chenopodium album)
How it was run: as §2

barnyard grass [21] = assay: Test Example 4: herbicidal effect by soil treatment (Table 19, symbol H); assay type: in vivo, barnyard grass (Echinochloa crus-galli)
How it was run: as §2

[22] = amount of applied herbicide 320 g/ha
[23] = amount of applied herbicide 310 g/ha

COc1ccccc1-c1sc2ccc(C(F)(F)F)cc2c1-c1c(O)c(C)nn(C)c1=O [2-162]
herbicidal effect on G: green foxtail (criteria 0-5) (green foxtail [1]; 320 g/ha): 0 (Herbicidal rate of 5% or less (almost no effect)) | K: Italian ryegrass, herbicidal effect rating (Italian ryegrass [2]; [22]): 0 (Herbicidal rate of 5% or less (almost no effect)) | herbicidal effect on J: blackgrass (criteria 0-5) (blackgrass [3]; 320 g/ha): 0 (Herbicidal rate of 5% or less (almost no effect)) | herbicidal effect on H: barnyard grass (criteria 0-5) (barnyard grass [4]; 320 g/ha): 0 (Herbicidal rate of 5% or less (almost no effect)) | herbicidal effect on E: rice flat sedge (rice flat sedge; [22]): 3 (Herbicidal rate of 40% or more and less than 70%) | herbicidal effect on R: persian speedwell (criteria 0-5) (persian speedwell; 320 g/ha): 2 (Herbicidal rate of 20% or more and less than 40%) | L: windgrass, herbicidal effect rating (windgrass [5]; [22]): 0 (Herbicidal rate of 5% or less (almost no effect)) | J: blackgrass, herbicidal effect rating (blackgrass [6]; [22]): 0 (Herbicidal rate of 5% or less (almost no effect)) | herbicidal effect on N: redroot pigweed (criteria 0-5) (redroot pigweed [7]; 320 g/ha): 3 (Herbicidal rate of 40% or more and less than 70%) | herbicidal effect on L: windgrass (criteria 0-5) (windgrass [8]; 320 g/ha): 0 (Herbicidal rate of 5% or less (almost no effect)) | M: velvetleaf, herbicidal effect rating (velvetleaf [9]; [22]): 0 (Herbicidal rate of 5% or less (almost no effect)) | F: southern crabgrass, herbicidal effect rating (southern crabgrass [10]; [22]): 0 (Herbicidal rate of 5% or less (almost no effect)) | herbicidal effect on I: wild oat (criteria 0-5) (wild oat [11]; 320 g/ha): 0 (Herbicidal rate of 5% or less (almost no effect)) | herbicidal effect on F: southern crabgrass (criteria 0-5) (southern crabgrass [12]; 320 g/ha): 0 (Herbicidal rate of 5% or less (almost no effect)) | I: wild oat, herbicidal effect rating (wild oat [13]; [22]): 0 (Herbicidal rate of 5% or less (almost no effect)) | herbicidal effect on M: velvetleaf (criteria 0-5) (velvetleaf [14]; 320 g/ha): 2 (Herbicidal rate of 20% or more and less than 40%) | N: redroot pigweed, herbicidal effect rating (redroot pigweed [15]; [22]): 2 (Herbicidal rate of 20% or more and less than 40%) | Q: false cleavers, herbicidal effect rating (false cleavers; [22]): 0 (Herbicidal rate of 5% or less (almost no effect)) | herbicidal effect on P: chickweed (criteria 0-5) (chickweed; 320 g/ha): 5 (Herbicidal rate of 90% or more (almost completely withered)) | G: green foxtail, herbicidal effect rating (green foxtail [16]; [22]): 3 (Herbicidal rate of 40% or more and less than 70%) | herbicidal effect on H: barnyard grass (barnyard grass [17]; [22]): 3 (Herbicidal rate of 40% or more and less than 70%) | herbicidal effect on K: Italian ryegrass (criteria 0-5) (Italian ryegrass [18]; 320 g/ha): 0 (Herbicidal rate of 5% or less (almost no effect)) | herbicidal effect on O: lambsquarters (criteria 0-5) (lambsquarters [19]; 320 g/ha): 0 (Herbicidal rate of 5% or less (almost no effect)) | herbicidal effect on D: Chinese sprangletop (Chinese sprangletop; [22]): 0 (Herbicidal rate of 5% or less (almost no effect)) | O: lambsquarters, herbicidal effect rating (lambsquarters [20]; [22]): 1 (Herbicidal rate of 5% or more and less than 20%) | H: barnyard grass, herbicidal effect rating (barnyard grass [21]; [22]): 0 (Herbicidal rate of 5% or less (almost no effect))

Cc1nn(C)c(=O)c(-c2c(-c3ccc(OC(F)F)cc3)sc3ccc(F)cc23)c1OC(=S)Oc1ccccc1 [2-297]
G: green foxtail, herbicidal effect (criteria 0-5) (green foxtail [1]; AAH 310 g/ha): 5 (Herbicidal rate of 90% or more (almost completely withered)) | herbicidal effect on K: Italian ryegrass (Italian ryegrass [2]; [23]): 5 (Herbicidal rate of 90% or more (almost completely withered)) | J: blackgrass, herbicidal effect (criteria 0-5) (blackgrass [3]; AAH 310 g/ha): 3 (Herbicidal rate of 40% or more and less than 70%) | H: barnyard grass, herbicidal effect (criteria 0-5) (barnyard grass [4]; AAH 310 g/ha): 5 (Herbicidal rate of 90% or more (almost completely withered)) | herbicidal effect on E: rice flat sedge (rice flat sedge; [23]): 5 (Herbicidal rate of 90% or more (almost completely withered)) | R: persian speedwell, herbicidal effect (criteria 0-5) (persian speedwell; AAH 310 g/ha): 5 (Herbicidal rate of 90% or more (almost completely withered)) | herbicidal effect on L: windgrass (windgrass [5]; [23]): 0 (Herbicidal rate of 5% or less (almost no effect)) | herbicidal effect on J: blackgrass (blackgrass [6]; [23]): 3 (Herbicidal rate of 40% or more and less than 70%) | N: redroot pigweed, herbicidal effect (criteria 0-5) (redroot pigweed [7]; AAH 310 g/ha): 5 (Herbicidal rate of 90% or more (almost completely withered)) | L: windgrass, herbicidal effect (criteria 0-5) (windgrass [8]; AAH 310 g/ha): 0 (Herbicidal rate of 5% or less (almost no effect)) | herbicidal effect on M: velvetleaf (velvetleaf [9]; [23]): 5 (Herbicidal rate of 90% or more (almost completely withered)) | herbicidal effect on F: southern crabgrass (southern crabgrass [10]; [23]): 3 (Herbicidal rate of 40% or more and less than 70%) | I: wild oat, herbicidal effect (criteria 0-5) (wild oat [11]; AAH 310 g/ha): 2 (Herbicidal rate of 20% or more and less than 40%) | F: southern crabgrass, herbicidal effect (criteria 0-5) (southern crabgrass [12]; AAH 310 g/ha): 1 (Herbicidal rate of 5% or more and less than 20%) | herbicidal effect on I: wild oat (wild oat [13]; [23]): 0 (Herbicidal rate of 5% or less (almost no effect)) | M: velvetleaf, herbicidal effect (criteria 0-5) (velvetleaf [14]; AAH 310 g/ha): 5 (Herbicidal rate of 90% or more (almost completely withered)) | herbicidal effect on N: redroot pigweed (redroot pigweed [15]; [23]): 5 (Herbicidal rate of 90% or more (almost completely withered)) | herbicidal effect on Q: false cleavers (false cleavers; [23]): 0 (Herbicidal rate of 5% or less (almost no effect)) | P: chickweed, herbicidal effect (criteria 0-5) (chickweed; AAH 310 g/ha): 5 (Herbicidal rate of 90% or more (almost completely withered)) | herbicidal effect on G: green foxtail (green foxtail [16]; [23]): 4 (Herbicidal rate of 70% or more and less than 90%) | herbicidal effect on H: barnyard grass (barnyard grass [17]; [23]): 5 (Herbicidal rate of 90% or more (almost completely withered)) | K: Italian ryegrass, herbicidal effect (criteria 0-5) (Italian ryegrass [18]; AAH 310 g/ha): 5 (Herbicidal rate of 90% or more (almost completely withered)) | O: lambsquarters, herbicidal effect (criteria 0-5) (lambsquarters [19]; AAH 310 g/ha): 5 (Herbicidal rate of 90% or more (almost completely withered)) | herbicidal effect on D: Chinese sprangletop (Chinese sprangletop; [23]): 0 (Herbicidal rate of 5% or less (almost no effect)) | herbicidal effect on O: lambsquarters (lambsquarters [20]; [23]): 5 (Herbicidal rate of 90% or more (almost completely withered)) | herbicidal effect on H: barnyard grass (barnyard grass [21]; [23]): 4 (Herbicidal rate of 70% or more and less than 90%)
